From patent publication US8822413B2, “Bifunctional hormone having alpha-MSH activity and natriuretic peptide activity and uses thereof” (Theratechnologies Inc., priority 2007, dated 2014)
Bridge positions count the residues as written; N and C are the ends. Square brackets hold non-standard residues; d marks the D form. Peptide text beside a SMILES is read from it.

Tests used:
[1] = system: Sprague-Dawley (SD) rats; test: Chronic infusion, acute kidney dysfunction following renal ischemia; assay type: in vivo, rat; conditions: FIG. 5
Method: After removing the renal artery clamps, peptide #2 or #33 was infused at two doses using intraperitoneally implanted Alzet™ minipumps (2ML1; delivery rate 10 μl/h). Plasma creatinine and BUN were determined at the indicated times. Data were analyzed by two way ANOVA using Bonferroni test for significance against the saline-treated group (n=3 per group; sal n=6); and
Surgical preparation. The rats were anesthetized with Isoflurane 2.5% for the duration of the experiment. Animals were placed under radiant warmer to keep the temperature at 37.5° C. A blood sample (0.5 ml) was collected via tail vein artery before the renal artery clamping. Once the animal was anesthetized, placed in a supine position, a 1.5 cm flank incision was made on the right side of the abdominal wall. The right kidney was then exposed and the ureter, renal artery and renal vein were carefully dissected and ligated. The kidney was removed after cutting renal pedicle. A same incision was made on the left side of the abdominal wall. The left kidney is exposed and the renal vascular pedicle is carefully dissected. The renal vascular pedicle was then occluded by placing a vascular clip (Micro Serrefine™, Fine Science Tools) for a period of 30 or 45 minutes. This renal vascular pedicle clamping produced an acute renal artery occlusion (RAO). The kidney was inspected for ischemia as well as for good reperfusion after removing vascular clip for 2 minutes. The wound of abdominal wall was closed in two layers. The muscular layer was closed with a running 3-0 silk suture and the skin was closed with suture clips (Fine Science Tools). 21 hours after right nephrectomy and left renal artery clipping procedure, the rats were put in the metabolic cages for urine collection (in pre-weighed Tube 50 ml) for 3 hours. Urine volume was measured by weighing the tube containing urine. Then, the animals were anesthetized with Isoflurane 2.5%. Left kidney was removed and kept in formalin for future histology. Blood was collected by cardiac puncture into a heparinized syringe (3 ml) and immediately transferred into appropriately labeled tubes that contain heparin as the anticoagulant. Following collection, all blood samples were kept on ice and centrifuged for 2 min at 13000 rpm. Plasma and urine aliquots (400 μl) were removed and stored at −80° C.
In order to test the effect of chronic infusion of the bifunctional hormone on kidney function on kidney injury, peptides #2 or #33 were infused at 1.5 or 15 μg/kg/h for 24 h after renal artery clamp removal. Plasma creatinine and urea nitrogen were determined at 24 h after the injury. The experimental procedures (animal model, dosing solutions) were the same as those described in Example 5 above.

[2] = system: Sprague-Dawley (SD) rats; test: Effect on angiotensin II-induced hypertension in SD rat; assay type: in vivo; conditions: Ang II infusion, FIG. 2
Description: BNP (Natrecor®) was approved by the FDA for lowering blood pressure in hypertensive crisis. Its natural homolog, ANP, was also shown to rapidly reduce blood pressure and is useful as a therapeutic in hypertensive crisis. Activation of renin-angiotensin system is implicated in several medical indications involving hypertension. Therefore, a rat model in which blood pressure was raised with the continuous infusion of angiotensin II was used, and the potency/efficacy of native ANP (peptide #2 in the figures) and the bifunctional hormone of SEQ ID NO: 33 (peptide #33 in the figures) to reduce blood pressure was tested following intravenous bolus injections of the peptides in SD rats.
Animals. Sprague-Dawley (SD) rats (male, weighing from 300 to 330 g) were obtained from Charles River Inc. Animals were maintained on standard laboratory chow under a 12:12 light:dark cycle.
Surgical preparation. The rats were anesthetized with isoflurane 2.5% for the duration of the experiment. Animals were placed under radiant warmer to keep the temperature at 37.5° C. The carotid artery was catheterized (Polyethylene™ Tubing PE90) for continuous arterial blood pressure recording with a pressure transducer (Statham) connected to a multichannel recorder (TA240 Gould). […] During this period, the stability of blood pressure was assessed. […]

[3] = 1.5 or 15 μg/kg/h for 24 h after clamp removal (Alzet minipumps), vs saline-treated animals at 24 h

For CC[C@H](C)[C@@H]1NC(=O)[C@H](CCCNC(=N)N)NC(=O)[C@H](CC(=O)O)NC(=O)[C@H](CCSC)NC(=O)[C@H](CCCNC(=N)N)NC(=O)CNC(=O)CNC(=O)[C@H](Cc2ccccc2)NC(=O)[C@@H](NC(=O)[C@H](CCSC)NC(=O)[C@@H]2CCCN2C(=O)[C@H](CCCCN)NC(=O)CNC(=O)[C@H](Cc2c[nH]c3ccccc23)NC(=O)[C@H](CCCNC(=N)N)NC(=O)[C@@H](Cc2ccccc2)NC(=O)[C@H](Cc2c[nH]cn2)NC(C)=O)CSSC[C@@H](C(=O)N[C@@H](CC(N)=O)C(=O)N[C@@H](CO)C(=O)N[C@@H](Cc2ccccc2)C(=O)N[C@@H](CCCNC(=N)N)C(=O)N[C@@H](Cc2ccc(O)cc2)C(N)=O)NC(=O)CNC(=O)[C@H](CC(C)C)NC(=O)CNC(=O)[C@H](CO)NC(=O)[C@H](CCC(N)=O)NC(=O)[C@H](C)NC(=O)CNC1=O [SEQ ID NO: 33, Ac-H-f-R-W-G-K-P-M-[C-F-G-G-R-M-D-R-I-G-A-Q-S-G-L-G-C]-N-S-F-R-Y-NH2] (Ac-H[dF]RWGKPMCFGGRMDRIGAQSGLGCNSFRY-NH2; disulfide 9-25), the “dose dependence of reduction in the blood markers of renal ischemia” value ([1]; 1.5 and 15 μg/kg/h for 24 h) was “dose-dependent reduction”, the BUN [1, 3] was “reduced plasma creatinine and BUN significantly” and the plasma creatinine [1, 3] was “reduced plasma creatinine and BUN significantly”. The “reduction in BUN levels, compared with native ANP” value ([1]; 24-hour infusion) was “more pronounced reduction”, the “reduction in creatinine levels, compared with native ANP” value ([1]; 24-hour infusion) was “more pronounced reduction” and the “effect on blood pressure raised by angiotensin II” value ([2]; iv bolus doses of 400 μg/kg and above) was “effect similar to that of ANP”. The “effect on blood pressure raised by angiotensin II” value ([2]; iv bolus doses of up to 300 μg/kg) was “did not induced hypotension”.
